Test results from patent publication US8518958B2, “Pyrido [2,3-D] pyrimidines and their use as kinase inhibitors” (Forma Therapeutics, Inc., priority 2006, dated 2013).

How the values were obtained:
[1] = test system: HT-29 tumor cells; experiment: Anti-proliferative activity, SRB assay; type: cell-based, human; conditions: Homo sapiens, HT-29, 72 h, 72 hours exposure, read-out: CELLULAR IC50 HT-29
Procedure, shortened: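 Cells at 3,000-15,000/well, plated 24 h before compound, exposed to a concentration range for 72 hours. Proliferation measured by SRB staining after cold TCA fixation, absorbance at OD570; IC50 estimated from % inhibition versus DMSO-treated cells.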

[2] = target: B-Raf delta1-415 (Homo sapiens, UniProt P15056); experiment: B-Raf kinase inhibition (MAPH filter plate, 33P-ATP, MEK1 substrate); conditions: read-out: Biochemical IC50 B-Raf
Sequence of B-Raf delta1-415 (P15056 416-766): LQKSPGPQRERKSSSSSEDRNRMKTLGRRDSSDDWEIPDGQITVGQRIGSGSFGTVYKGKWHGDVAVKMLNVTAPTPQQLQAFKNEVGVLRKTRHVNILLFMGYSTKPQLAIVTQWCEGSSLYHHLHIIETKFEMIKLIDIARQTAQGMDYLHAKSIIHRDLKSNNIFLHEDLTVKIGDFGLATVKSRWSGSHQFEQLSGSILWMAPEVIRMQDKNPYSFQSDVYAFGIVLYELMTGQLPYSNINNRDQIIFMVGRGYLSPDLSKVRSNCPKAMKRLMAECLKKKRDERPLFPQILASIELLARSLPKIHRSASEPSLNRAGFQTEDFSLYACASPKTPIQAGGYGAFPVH
Procedure, shortened: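 Radiometric filter-binding assay with B-Raf delta1-415 at a level giving 50% turnover, MEK1 substrate and 33P-ATP (12.5 μCi/ml) in 20 mM Mops pH 7.0 with Mg/Mn, 1 h at room temperature. Inhibitor dilution series from 10 μM; EDTA-stopped reactions captured on phosphocellulose filters, counted by scintillation for IC50.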

SMILES	IC50 [1]	IC50 [2]
COn1c(=O)c(-c2c(Cl)cccc2Cl)cc2cnc(Nc3cccc(CN4CC[C@H](O)C4)c3)nc21 [Compound 181, 6-(2,6-Dichlorophenyl)-2-(3-(3-(S)-hydroxypyrrolidinomethyl)phenyl)-amino-8-methoxy-pyrido[2,3-d]pyrimidin-7-one]	< 1 µM	< 0.5 µM
COn1c(=O)c(-c2c(Cl)cccc2Cl)cc2cnc(Nc3cccc(CN4CC[C@@H](O)C4)c3)nc21 [Compound 182, 6-(2,6-Dichlorophenyl)-2-(3-(3-(R)-hydroxypyrrolidinomethyl)phenyl)-amino-8-methoxy-pyrido[2,3-d]pyrimidin-7-one]	< 1 µM	< 0.5 µM
COn1c(=O)c(-c2c(Cl)cccc2Cl)cc2cnc(Nc3cccc(CN4CCC(F)(F)C4)c3)nc21 [Compound 183, 6-(2,6-Dichlorophenyl)-2-(3-(3,3-difluoropyrrolidinomethyl)phenyl)-amino-8-methoxy-pyrido[2,3-d]pyrimidin-7-one]	< 1 µM	> 1 µM
COn1c(=O)c(-c2c(Cl)cccc2Cl)cc2cnc(Nc3ccc(N4CCNCC4)cc3)nc21 [Compound 184, 6-(2,6-Dichlorophenyl)-8-methoxy-2-(4-piperazinophenyl)-amino-pyrido[2,3-d]pyrimidin-7-one]	< 1 µM	< 0.1 µM
COn1c(=O)c(-c2c(Cl)cccc2Cl)cc2cnc(Nc3cc(C(=O)N4CCNCC4)n(C)c3)nc21 [Compound 185, 6-(2,6-Dichlorophenyl)-8-methoxy-2-(5-piperazinocarbonyl-1-methyl-pyrrol-3-yl)-amino-pyrido[2,3-d]pyrimidin-7-one]	< 1 µM	< 0.1 µM
O=c1c(-c2c(Cl)cccc2Cl)cc2cnc(Nc3ccccc3)nc2n1OCC1CCOCC1 [Compound 186, 6-(2,6-Dichlorophenyl)-2-phenylamino-8-(tetrahydropyran-4-ylmethyl)oxy-pyrido[2,3-d]pyrimidin-7-one]	< 1 µM	< 0.5 µM
COn1c(=O)c(-c2c(Cl)cccc2Cl)cc2cnc(Nc3ccc(N4CCN(C(C)C)CC4)cc3)nc21 [Compound 187]	< 1 µM	< 0.5 µM
COCCN1CCN(C(=O)c2cc(Nc3ncc4cc(-c5c(Cl)cccc5Cl)c(=O)n(OC)c4n3)cn2C)CC1 [Compound 188, 6-(2,6-Dichlorophenyl)-8-methoxy-2-(5-(4-(2-methoxy)ethyl)piperazino-carbonyl-1-methyl-pyrrol-3-yl)-amino-pyrido[2,3-d]pyrimidin-7-one]	< 1 µM	< 0.5 µM
CCN1CCN(c2ccc(Nc3ncc4cc(-c5c(Cl)cccc5Cl)c(=O)n(OC)c4n3)cc2)CC1 [Compound 189, 6-(2,6-Dichlorophenyl)-2-(4-(4-ethylpiperazino)phenyl)-amino-8-methoxy-pyrido[2,3-d]pyrimidin-7-one]	< 1 µM	< 0.5 µM
COn1c(=O)c(-c2c(Cl)cccc2Cl)cc2cnc(Nc3ccccc3F)nc21 [Compound 190, 6-(2,6-Dichlorophenyl)-2-(2-fluorophenyl)amino-8-methoxy-pyrido[2,3-d]pyrimidin-7-one]	< 1 µM	> 1 µM
COn1c(=O)c(-c2c(Cl)cccc2Cl)cc2cnc(Nc3ccc(Br)cc3)nc21 [Compound 191, 2-(4-Bromophenyl)amino-6-(2,6-dichlorophenyl)-8-methoxy-pyrido[2,3-d]pyrimidin-7-one]	< 10 µM	> 1 µM
COn1c(=O)c(-c2c(Cl)cccc2Cl)cc2cnc(Nc3ccc(C(C)=O)cc3)nc21 [Compound 192, 2-(4-Acetylphenyl)amino-6-(2,6-dichlorophenyl)-8-methoxy-pyrido[2,3-d]pyrimidin-7-one]	< 1 µM	< 0.5 µM
COn1c(=O)c(-c2c(F)cccc2Cl)cc2cnc(Nc3cc(C(=O)N(C)CCO)n(C)c3)nc21 [Compound 193, 6-(2-Chloro-6-fluorophenyl)-2-(5-N-(2-hydroxyethyl)-N-methyl-aminocarbonyl-1-methyl-pyrrol-3-yl)-amino-8-methoxy-pyrido[2,3-d]pyrimidin-7-one]	< 1 µM	< 0.1 µM
COCCN(C)C(=O)c1cc(Nc2ncc3cc(-c4c(F)cccc4Cl)c(=O)n(OC)c3n2)cn1C [Compound 194, 6-(2-Chloro-6-fluorophenyl)-2-(5-N-(2-methoxyethyl)-N-methyl-aminocarbonyl-1-methyl-pyrrol-3-yl)-amino-8-methoxy-pyrido[2,3-d]pyrimidin-7-one]	< 1 µM	< 0.1 µM
COCCOn1c(=O)c(-c2c(Cl)cccc2Cl)cc2cnc(Nc3ccc(N4CCNCC4)cc3)nc21 [Compound 195, 6-(2,6-Dichlorophenyl)-8-(2-methoxyethyl)oxy-2-(4-piperazinophenyl)-amino-pyrido[2,3-d]pyrimidin-7-one]	< 1 µM	< 0.5 µM
COn1c(=O)c(-c2c(Cl)cccc2Cl)cc2cnc(Nc3ccc(CN4CCC(F)(F)C4)cc3)nc21 [Compound 196, 6-(2,6-Dichlorophenyl)-2-(4-(3,3-difluoropyrrolidinomethyl)phenyl)-amino-8-methoxy-pyrido[2,3.-d]pyrimidin-7-one]	< 1 µM	< 0.5 µM
COn1c(=O)c(-c2c(F)cccc2Cl)cc2cnc(Nc3cc(C(=O)N4CCOCC4)n(C)c3)nc21 [Compound 197, 6-(2-Chloro-6-fluorophenyl)-8-methoxy-2-(5-morpholinocarbonyl-1-methyl-pyrrol-3-yl)-amino-pyrido[2,3-d]pyrimidin-7-one]	< 1 µM	< 0.5 µM
COn1c(=O)c(-c2c(F)cccc2Cl)cc2cnc(Nc3ccc(N4CCNCC4)cc3)nc21 [Compound 198, 6-(2-Chloro-6-fluorophenyl)-8-methoxy-2-(4-piperazinophenyl)-amino-pyrido[2,3-d]pyrimidin-7-one]	< 1 µM	< 0.1 µM
COn1c(=O)c(-c2c(F)cccc2Cl)cc2cnc(Nc3ccc(N4CCNCC4)c(Cl)c3)nc21 [Compound 199, 6-(2-Chloro-6-fluorophenyl)-2-(3-chloro-4-piperazinophenyl)-amino-8-methoxy-pyrido[2,3-d]pyrimidin-7-one]	< 1 µM	< 0.1 µM
COn1c(=O)c(-c2c(Cl)cccc2Cl)cc2cnc(Nc3ccc(N4CCN(S(C)(=O)=O)CC4)cc3)nc21 [Compound 200, 6-(2,6-Dichlorophenyl)-8-methoxy-2-(4-(4-methylsulfonyl)piperazino-phenyl)-amino-pyrido[2,3-d]pyrimidin-7-one]	< 1 µM	< 0.5 µM
COn1c(=O)c(-c2c(Cl)cccc2Cl)cc2cnc(Nc3ccc(CN4CCC4)cc3)nc21 [Compound 201, 2-(4-(1-azacyclobutyl)methylphenyl)-amino-6-(2,6-dichlorophenyl)-8-methoxy-pyrido[2,3-d]pyrimidin-7-one]	< 1 µM	< 0.5 µM
O=c1c(-c2c(Cl)cccc2Cl)cc2cnc(Nc3ccc(N4CCNCC4)cc3)nc2n1OCC1CCOCC1 [Compound 202, 6-(2,6-Dichlorophenyl)-8-(tetrahydropyran-4-ylmethyl)oxy-2-(4-piperazinophenyl)-amino-pyrido[2,3-d]pyrimidin-7-one]	< 1 µM	< 0.5 µM
COn1c(=O)c(-c2c(F)cccc2Cl)cc2cnc(Nc3ccc(N4CCN(C(C)C)CC4)cc3)nc21 [Compound 203, 6-(2-Chloro-6-fluorophenyl)-8-methoxy-2-(4-(4-(1-methylethyl)piperazino)phenyl)-amino-pyrido[2,3-d]pyrimidin-7-one]	< 1 µM	< 0.1 µM
CCCN1CCN(c2ccc(Nc3ncc4cc(-c5c(Cl)cccc5Cl)c(=O)n(OC)c4n3)cc2)CC1 [Compound 204, 6-(2,6-Dichlorophenyl)-8-methoxy-2-(4-(4-propylpiperazino)phenyl)-amino-pyrido[2,3-d]pyrimidin-7-one]	< 1 µM	< 0.1 µM
COCCOn1c(=O)c(-c2c(Cl)cccc2Cl)cc2cnc(Nc3ccc(N4CCN(C(C)C)CC4)cc3)nc21 [Compound 205, 6-(2,6-Dichlorophenyl)-8-(2-methoxyethyl)oxy-2-(4-(4-(1-methylethyl)piperazino)phenyl)-amino-pyrido[2,3-d]pyrimidin-7-one]	< 1 µM	< 0.1 µM
CC(C)N1CCN(c2ccc(Nc3ncc4cc(-c5c(Cl)cccc5Cl)c(=O)n(OCC5CCOCC5)c4n3)cc2)CC1 [Compound 206, 6-(2,6-Dichlorophenyl)-8-(tetrahydropyran-4-ylmethyl)oxy-2-(4-(4-(1-methylethyl)piperazino)phenyl)-amino-pyrido[2,3-d]pyrimidin-7-one]	< 1 µM	< 0.5 µM
CCCN1CCN(c2ccc(Nc3ncc4cc(-c5c(Cl)cccc5Cl)c(=O)n(OCCOC)c4n3)cc2)CC1 [Compound 207, 2-(4-(4-propylpiperazino)phenyl)-amino-6-(2,6-dichlorophenyl)-8-(2-methoxyethyl)oxy-pyrido[2,3-d]pyrimidin-7-one]	< 1 µM	< 0.5 µM
COn1c(=O)c(-c2c(F)cccc2Cl)cc2cnc(Nc3cc(C(=O)N4CCNCC4)n(C)c3)nc21 [Compound 208, 6-(2-Chloro-6-fluorophenyl)-8-methoxy-2-(5-piperazinocarbonyl-1-methyl-pyrrol-3-yl)-amino-pyrido[2,3-d]pyrimidin-7-one]	< 1 µM	< 0.1 µM
CO/N=C/c1ccc(Nc2ncc3cc(-c4c(Cl)cccc4Cl)c(=O)n(OC)c3n2)cc1 [Compound 209, 2-(4-(methoximino)methylphenyl)-amino-6-(2,6-dichlorophenyl)-8-methoxy-pyrido[2,3-d]pyrimidin-7-one]	< 1 µM	< 1 µM
